Experimental data: ChEMBL document CHEMBL1201862, “PubChem BioAssay data set” (2004)
Active and inactive are the calls of the source.

What was measured:
Protein RecA = target: T1, Protein RecA (Mycobacterium tuberculosis, UniProt P9WHJ3); assay: Fluorescence Cell-Free Homogeneous Dose Retest to Identify Inhibitors of RecA-Intein Splicing Activity. [Related pubchem assays (depositor defined):AID2097, AID2223, AID489010, AID492950]; format: functional
T1 sequence (P9WHJ3 whole entry): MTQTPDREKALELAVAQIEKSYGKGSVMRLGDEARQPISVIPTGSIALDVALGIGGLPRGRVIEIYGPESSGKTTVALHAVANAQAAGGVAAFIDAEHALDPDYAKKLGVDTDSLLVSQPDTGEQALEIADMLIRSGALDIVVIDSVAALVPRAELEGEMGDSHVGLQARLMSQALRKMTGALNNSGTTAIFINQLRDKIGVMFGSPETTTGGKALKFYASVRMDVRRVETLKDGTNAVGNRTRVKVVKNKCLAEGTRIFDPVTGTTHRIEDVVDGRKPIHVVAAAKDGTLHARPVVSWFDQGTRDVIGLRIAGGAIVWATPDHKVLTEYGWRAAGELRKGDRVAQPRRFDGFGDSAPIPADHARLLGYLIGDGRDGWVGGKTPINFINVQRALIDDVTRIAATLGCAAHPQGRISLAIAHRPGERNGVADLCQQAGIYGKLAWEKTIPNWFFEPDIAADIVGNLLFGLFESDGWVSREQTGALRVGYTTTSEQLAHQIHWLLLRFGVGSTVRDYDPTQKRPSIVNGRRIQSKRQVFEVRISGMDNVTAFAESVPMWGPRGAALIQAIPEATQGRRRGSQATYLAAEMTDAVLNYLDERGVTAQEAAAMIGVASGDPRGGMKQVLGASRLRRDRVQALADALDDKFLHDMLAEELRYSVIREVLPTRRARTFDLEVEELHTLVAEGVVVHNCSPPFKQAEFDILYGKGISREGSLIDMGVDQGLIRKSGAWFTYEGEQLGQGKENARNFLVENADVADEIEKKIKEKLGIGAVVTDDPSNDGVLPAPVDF

[1] = target: T2, Replicative DNA helicase DnaB (Mycobacterium tuberculosis, UniProt P9WMR3); assay: DnaB intein splicing inhibitors, dose response, biochemical, cell-free fluorescence (AID 449749); format: functional
T2 sequence (P9WMR3 whole entry): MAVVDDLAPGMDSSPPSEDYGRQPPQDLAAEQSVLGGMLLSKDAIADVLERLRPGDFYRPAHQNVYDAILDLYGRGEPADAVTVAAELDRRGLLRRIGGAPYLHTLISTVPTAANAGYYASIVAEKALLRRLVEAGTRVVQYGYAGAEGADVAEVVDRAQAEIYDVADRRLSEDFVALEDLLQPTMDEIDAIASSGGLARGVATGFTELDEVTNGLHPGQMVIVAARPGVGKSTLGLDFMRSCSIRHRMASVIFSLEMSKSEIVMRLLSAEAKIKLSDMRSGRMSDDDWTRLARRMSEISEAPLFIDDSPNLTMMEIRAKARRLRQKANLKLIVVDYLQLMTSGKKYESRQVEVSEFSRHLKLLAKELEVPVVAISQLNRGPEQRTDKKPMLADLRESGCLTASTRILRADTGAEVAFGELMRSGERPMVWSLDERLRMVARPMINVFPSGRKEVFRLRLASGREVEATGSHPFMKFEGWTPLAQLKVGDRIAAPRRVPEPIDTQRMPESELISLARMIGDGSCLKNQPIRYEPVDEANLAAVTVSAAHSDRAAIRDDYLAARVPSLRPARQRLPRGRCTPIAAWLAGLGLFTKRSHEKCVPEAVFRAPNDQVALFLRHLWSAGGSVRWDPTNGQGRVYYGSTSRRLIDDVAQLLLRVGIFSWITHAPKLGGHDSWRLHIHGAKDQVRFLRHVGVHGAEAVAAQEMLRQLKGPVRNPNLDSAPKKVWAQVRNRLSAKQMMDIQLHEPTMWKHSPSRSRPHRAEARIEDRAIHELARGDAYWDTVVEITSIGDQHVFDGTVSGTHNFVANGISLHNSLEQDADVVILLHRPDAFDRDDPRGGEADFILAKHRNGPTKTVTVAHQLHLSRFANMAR

[2] = target: Peroxisome proliferator-activated receptor gamma/Nuclear receptor coactivator 1 (Homo sapiens, UniProt P37231); assay: TR-FRET dose response biochemical High Throughput Screening assay for agonists of the steroid receptor coactivator 1 (SRC-1) recruitment by the peroxisome proliferator-activated receptor gamma (PPAR gamma): non-selective agonists. [Related pubchem assays (depositor defined):AID1300, AID1808, AID504735, AID631]; format: protein assay
[3] = target: Peroxisome proliferator-activated receptor gamma/Nuclear receptor coactivator 2 (Homo sapiens, UniProt P37231); assay: (§1) TR-FRET dose response biochemical High Throughput Screening assay for agonists of the steroid receptor coactivator 2 (SRC-2) recruitment by the peroxisome proliferator-activated receptor gamma (PPAR gamma): non-selective agonists. [Related pubchem assays: 1297, 1032 ]; format: functional
[4] = target: Peroxisome proliferator-activated receptor gamma/Nuclear receptor coactivator 3 (Homo sapiens, UniProt P37231); assay: as §1, with “3 (SRC-3)” for “2 (SRC-2)”, “1301 (Confirmation screen.), 1048 (Primary screen.)]” for “1297, 1032 ]”; format: functional
[5] = cytotoxicity in MIN6 insulinoma cells, dose response, cytotoxicity control, cell-based, mouse insulinoma (AID 2122); format: functional;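 also: confirmatory high-throughput counterscreen run to flag cytotoxic compounds; mouse MIN-6 beta cells carrying an insulin promoter eGFP reporter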
[6] = insulin promoter down-regulators in MIN6 cells, imaging, high-content screening, mouse beta cells (AID 1628); format: functional
BJ [7] = assay: cytotoxicity toward BJ-TERT-LT-ST fibroblasts, dose response, cell-based, RAS-independent, luminescence (AID 1935); format: functional; conditions: Homo sapiens;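 also: BJ fibroblasts immortalized with TERT plus LT and ST oncogenes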
BJ [8] = assay: cells; format: functional, cell-based; conditions: Homo sapiens
BJ [9] = assay: cytotoxicity toward BJ-TERT fibroblasts, dose response, cell-based, RAS-independent, luminescence (AID 1933); format: functional; conditions: Homo sapiens
A-375 = assay: MITF: Counter assay: A375 proliferation Measured in Cell-Based System Using Plate Reader - 2084-03_Inhibitor_Dose_DryPowder_Activity. [Related pubchem assays (depositor defined):AID488944]; format: functional; conditions: Homo sapiens
[10] = target: T3, Microphthalmia-associated transcription factor (Homo sapiens, UniProt O75030); assay: TRPM1 promoter luciferase signal decrease, dose response, MITF inhibitor project, cell-based, SK-MEL-5, cherry-picked, set 3 (AID 493073); format: functional
T3 sequence (O75030 whole entry): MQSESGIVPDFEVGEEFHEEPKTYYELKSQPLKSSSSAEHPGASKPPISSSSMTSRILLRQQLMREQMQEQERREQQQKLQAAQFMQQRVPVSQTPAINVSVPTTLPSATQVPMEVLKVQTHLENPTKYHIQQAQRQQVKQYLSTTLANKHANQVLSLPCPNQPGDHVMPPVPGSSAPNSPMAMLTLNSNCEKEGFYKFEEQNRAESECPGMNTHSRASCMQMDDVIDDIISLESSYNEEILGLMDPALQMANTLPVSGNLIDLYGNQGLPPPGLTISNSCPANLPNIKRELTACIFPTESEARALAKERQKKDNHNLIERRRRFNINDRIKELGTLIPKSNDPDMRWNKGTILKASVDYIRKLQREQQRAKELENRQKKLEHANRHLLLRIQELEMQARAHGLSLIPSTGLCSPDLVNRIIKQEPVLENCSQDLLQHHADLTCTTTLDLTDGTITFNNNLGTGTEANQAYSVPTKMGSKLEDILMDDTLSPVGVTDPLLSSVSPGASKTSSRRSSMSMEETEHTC

[11] = cytotoxicity toward DRD oncogenic fibroblasts, dose response, cell-based, non-viral oncogenic, luminescence (AID 1934); format: functional; conditions: Homo sapiens
[12] = target: T4, High affinity choline transporter 1 (Homo sapiens, UniProt Q9GZV3); assay: CHT inhibitors, dose response, cell-based, 5-point CRC, membrane potential dye (AID 504840); format: functional
T4 sequence (Q9GZV3 whole entry): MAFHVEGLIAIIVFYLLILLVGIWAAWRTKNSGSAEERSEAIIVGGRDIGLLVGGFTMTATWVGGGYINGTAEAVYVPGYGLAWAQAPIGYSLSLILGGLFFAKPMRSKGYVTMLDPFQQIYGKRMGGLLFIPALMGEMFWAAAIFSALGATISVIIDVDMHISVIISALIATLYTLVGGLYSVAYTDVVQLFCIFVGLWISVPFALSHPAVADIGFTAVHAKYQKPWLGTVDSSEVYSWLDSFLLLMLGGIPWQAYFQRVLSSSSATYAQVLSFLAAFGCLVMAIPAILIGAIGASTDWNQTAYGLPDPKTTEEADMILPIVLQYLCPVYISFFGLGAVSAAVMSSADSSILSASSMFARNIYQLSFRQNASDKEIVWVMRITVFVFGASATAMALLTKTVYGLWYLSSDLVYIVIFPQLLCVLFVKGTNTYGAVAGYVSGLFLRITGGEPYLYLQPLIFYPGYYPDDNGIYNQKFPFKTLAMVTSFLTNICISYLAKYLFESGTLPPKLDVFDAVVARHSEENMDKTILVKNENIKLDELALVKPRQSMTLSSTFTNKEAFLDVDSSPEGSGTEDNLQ

[13] = target: T5, Corticotropin-releasing factor receptor 2/Corticotropin-releasing factor-binding protein (Homo sapiens, UniProt P24387+Q13324); assay: activators of CRF receptor 2 with binding protein – uHTS hits, confirmation (AID 602473); format: functional; conditions: read-out: EC50_Mean
T5 sequence (Q13324 whole entry): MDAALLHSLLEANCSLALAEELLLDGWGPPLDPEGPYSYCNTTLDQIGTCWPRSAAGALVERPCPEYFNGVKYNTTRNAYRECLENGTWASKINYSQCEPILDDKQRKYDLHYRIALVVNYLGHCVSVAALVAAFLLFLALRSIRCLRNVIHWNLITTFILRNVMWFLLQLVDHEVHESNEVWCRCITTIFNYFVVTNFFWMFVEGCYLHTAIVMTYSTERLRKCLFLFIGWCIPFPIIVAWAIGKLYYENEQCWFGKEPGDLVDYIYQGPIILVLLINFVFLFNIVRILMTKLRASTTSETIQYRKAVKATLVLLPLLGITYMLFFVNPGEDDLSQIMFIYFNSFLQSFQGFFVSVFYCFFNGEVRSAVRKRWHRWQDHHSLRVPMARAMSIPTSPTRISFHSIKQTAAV
T5 sequence (P24387 whole entry): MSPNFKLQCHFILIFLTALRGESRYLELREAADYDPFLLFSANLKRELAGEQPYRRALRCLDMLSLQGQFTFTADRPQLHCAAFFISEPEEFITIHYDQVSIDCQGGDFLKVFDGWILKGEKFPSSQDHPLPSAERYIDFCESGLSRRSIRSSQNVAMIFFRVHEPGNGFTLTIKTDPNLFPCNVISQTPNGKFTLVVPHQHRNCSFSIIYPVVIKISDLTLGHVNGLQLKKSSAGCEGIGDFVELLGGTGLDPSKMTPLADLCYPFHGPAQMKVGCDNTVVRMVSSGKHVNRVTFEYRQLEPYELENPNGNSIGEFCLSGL

[14] = target: T6, Heat shock factor protein 1 (Mus musculus, UniProt P38532); assay: HSF1 potentiators in luciferase reporter cells, confirmation, cell-based, NIH3T3, luminescence, dose retest (AID 435004); format: functional;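 also: stress induced by proteasome inhibitor MG132 added 30 min after compound; luciferase reporter driven by HSF1 response element in NIH3T3 cells; actives raise luminescence as potentiators of the MG132 stress response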
T6 sequence (P38532 whole entry): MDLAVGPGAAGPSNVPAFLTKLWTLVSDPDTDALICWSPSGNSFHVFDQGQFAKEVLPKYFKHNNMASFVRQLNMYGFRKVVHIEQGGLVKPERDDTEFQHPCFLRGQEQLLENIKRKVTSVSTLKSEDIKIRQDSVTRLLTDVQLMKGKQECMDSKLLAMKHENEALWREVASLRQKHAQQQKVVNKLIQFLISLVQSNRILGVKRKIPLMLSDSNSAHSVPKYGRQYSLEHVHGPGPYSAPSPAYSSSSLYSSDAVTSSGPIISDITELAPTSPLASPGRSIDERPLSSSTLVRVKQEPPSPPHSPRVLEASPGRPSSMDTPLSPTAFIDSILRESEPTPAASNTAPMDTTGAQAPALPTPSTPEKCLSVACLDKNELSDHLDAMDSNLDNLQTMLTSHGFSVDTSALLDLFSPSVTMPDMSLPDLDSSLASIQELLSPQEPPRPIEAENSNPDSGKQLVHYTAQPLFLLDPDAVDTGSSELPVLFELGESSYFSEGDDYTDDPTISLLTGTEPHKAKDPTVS

[15] = target: T5, Corticotropin-releasing factor receptor 2/Corticotropin-releasing factor-binding protein; assay: Dose Response confirmation of uHTS hits for small molecule antagonists of the CRF-binding protein and CRF-R2 receptor complex.; format: functional; conditions: read-out: IC50_Mean
[16] = inhibitors of intracellular T. cruzi replication, confirmation, NIH3T3 host cells, beta-gal luminescence (AID 2044); format: functional, cell-based;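 also: intracellular parasites grown in NIH/3T3 mouse fibroblasts as host cells; luminescent beta-galactosidase reporter signal from transgenic T. cruzi replicating inside host cells; inhibitors lower the luminescence signal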
[17] = HEp-2 cell cytotoxicity, dose response, cytotoxicity control for RSV inhibitor project, HTS (AID 2410); format: functional; conditions: human respiratory syncytial virus
[18] = cytotoxicity toward NIH3T3 fibroblasts, dose response, counter-screen, cell-based, ATP luminescence, mouse fibroblasts (AID 2010); format: functional;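 also: cells exposed to compound for about 90 hours before reading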

Peroxisome proliferator-activated receptor gamma/Nuclear receptor coactivator 1, sequence (P37231 whole entry): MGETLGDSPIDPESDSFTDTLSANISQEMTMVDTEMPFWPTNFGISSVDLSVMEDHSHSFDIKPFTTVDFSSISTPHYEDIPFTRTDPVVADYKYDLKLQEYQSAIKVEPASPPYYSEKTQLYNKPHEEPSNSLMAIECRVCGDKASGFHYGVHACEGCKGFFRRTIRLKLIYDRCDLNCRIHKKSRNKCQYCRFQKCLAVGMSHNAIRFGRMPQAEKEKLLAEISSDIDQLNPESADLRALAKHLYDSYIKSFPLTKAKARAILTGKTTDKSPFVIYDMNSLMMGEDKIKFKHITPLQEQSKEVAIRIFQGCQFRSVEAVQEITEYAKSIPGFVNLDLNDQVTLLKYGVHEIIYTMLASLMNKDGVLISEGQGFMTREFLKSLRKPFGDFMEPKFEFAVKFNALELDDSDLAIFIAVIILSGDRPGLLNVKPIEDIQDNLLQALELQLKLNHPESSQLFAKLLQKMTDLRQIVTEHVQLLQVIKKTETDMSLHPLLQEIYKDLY
Peroxisome proliferator-activated receptor gamma/Nuclear receptor coactivator 1, sequence (Q15788 whole entry, further chain): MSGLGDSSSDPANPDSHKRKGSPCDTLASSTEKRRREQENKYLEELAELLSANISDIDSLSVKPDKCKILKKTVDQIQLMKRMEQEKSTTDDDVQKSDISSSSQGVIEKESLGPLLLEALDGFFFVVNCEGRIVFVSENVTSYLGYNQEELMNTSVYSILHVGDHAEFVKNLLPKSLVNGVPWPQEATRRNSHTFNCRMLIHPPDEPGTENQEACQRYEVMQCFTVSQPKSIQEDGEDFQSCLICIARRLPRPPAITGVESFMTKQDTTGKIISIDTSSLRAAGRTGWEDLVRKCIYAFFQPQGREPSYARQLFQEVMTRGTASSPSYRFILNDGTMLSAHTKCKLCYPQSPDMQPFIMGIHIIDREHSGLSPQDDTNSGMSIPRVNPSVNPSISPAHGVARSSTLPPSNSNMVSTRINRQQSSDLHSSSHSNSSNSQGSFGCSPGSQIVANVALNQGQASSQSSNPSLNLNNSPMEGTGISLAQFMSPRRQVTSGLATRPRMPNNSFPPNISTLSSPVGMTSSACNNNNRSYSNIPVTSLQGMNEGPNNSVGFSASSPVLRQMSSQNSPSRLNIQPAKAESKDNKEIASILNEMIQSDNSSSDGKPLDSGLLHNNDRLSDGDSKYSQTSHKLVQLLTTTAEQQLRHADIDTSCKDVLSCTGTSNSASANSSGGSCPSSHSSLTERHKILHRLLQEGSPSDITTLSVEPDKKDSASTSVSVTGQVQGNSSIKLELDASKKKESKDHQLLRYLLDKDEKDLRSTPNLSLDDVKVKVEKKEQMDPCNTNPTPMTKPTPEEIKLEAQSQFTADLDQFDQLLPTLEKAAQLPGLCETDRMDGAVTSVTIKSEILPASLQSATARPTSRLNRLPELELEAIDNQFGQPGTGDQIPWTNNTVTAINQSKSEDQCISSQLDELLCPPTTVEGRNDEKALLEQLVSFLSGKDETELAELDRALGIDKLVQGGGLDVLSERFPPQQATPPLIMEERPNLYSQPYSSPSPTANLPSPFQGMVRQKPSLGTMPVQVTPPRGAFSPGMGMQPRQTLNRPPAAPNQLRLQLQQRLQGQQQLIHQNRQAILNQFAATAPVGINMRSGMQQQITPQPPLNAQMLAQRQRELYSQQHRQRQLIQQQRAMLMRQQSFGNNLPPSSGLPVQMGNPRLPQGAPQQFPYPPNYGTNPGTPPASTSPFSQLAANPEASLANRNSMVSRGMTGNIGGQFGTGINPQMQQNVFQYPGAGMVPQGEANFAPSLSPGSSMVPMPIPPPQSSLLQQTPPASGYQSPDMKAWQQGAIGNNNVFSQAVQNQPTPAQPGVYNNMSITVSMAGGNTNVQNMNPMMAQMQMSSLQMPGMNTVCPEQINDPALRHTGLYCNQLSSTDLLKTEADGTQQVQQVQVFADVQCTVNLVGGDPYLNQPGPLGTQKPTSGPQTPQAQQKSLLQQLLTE
Peroxisome proliferator-activated receptor gamma/Nuclear receptor coactivator 3, sequence (P37231 whole entry): as the sequence (P37231 whole entry) above
Peroxisome proliferator-activated receptor gamma/Nuclear receptor coactivator 3, sequence (Q9Y6Q9 whole entry, further chain): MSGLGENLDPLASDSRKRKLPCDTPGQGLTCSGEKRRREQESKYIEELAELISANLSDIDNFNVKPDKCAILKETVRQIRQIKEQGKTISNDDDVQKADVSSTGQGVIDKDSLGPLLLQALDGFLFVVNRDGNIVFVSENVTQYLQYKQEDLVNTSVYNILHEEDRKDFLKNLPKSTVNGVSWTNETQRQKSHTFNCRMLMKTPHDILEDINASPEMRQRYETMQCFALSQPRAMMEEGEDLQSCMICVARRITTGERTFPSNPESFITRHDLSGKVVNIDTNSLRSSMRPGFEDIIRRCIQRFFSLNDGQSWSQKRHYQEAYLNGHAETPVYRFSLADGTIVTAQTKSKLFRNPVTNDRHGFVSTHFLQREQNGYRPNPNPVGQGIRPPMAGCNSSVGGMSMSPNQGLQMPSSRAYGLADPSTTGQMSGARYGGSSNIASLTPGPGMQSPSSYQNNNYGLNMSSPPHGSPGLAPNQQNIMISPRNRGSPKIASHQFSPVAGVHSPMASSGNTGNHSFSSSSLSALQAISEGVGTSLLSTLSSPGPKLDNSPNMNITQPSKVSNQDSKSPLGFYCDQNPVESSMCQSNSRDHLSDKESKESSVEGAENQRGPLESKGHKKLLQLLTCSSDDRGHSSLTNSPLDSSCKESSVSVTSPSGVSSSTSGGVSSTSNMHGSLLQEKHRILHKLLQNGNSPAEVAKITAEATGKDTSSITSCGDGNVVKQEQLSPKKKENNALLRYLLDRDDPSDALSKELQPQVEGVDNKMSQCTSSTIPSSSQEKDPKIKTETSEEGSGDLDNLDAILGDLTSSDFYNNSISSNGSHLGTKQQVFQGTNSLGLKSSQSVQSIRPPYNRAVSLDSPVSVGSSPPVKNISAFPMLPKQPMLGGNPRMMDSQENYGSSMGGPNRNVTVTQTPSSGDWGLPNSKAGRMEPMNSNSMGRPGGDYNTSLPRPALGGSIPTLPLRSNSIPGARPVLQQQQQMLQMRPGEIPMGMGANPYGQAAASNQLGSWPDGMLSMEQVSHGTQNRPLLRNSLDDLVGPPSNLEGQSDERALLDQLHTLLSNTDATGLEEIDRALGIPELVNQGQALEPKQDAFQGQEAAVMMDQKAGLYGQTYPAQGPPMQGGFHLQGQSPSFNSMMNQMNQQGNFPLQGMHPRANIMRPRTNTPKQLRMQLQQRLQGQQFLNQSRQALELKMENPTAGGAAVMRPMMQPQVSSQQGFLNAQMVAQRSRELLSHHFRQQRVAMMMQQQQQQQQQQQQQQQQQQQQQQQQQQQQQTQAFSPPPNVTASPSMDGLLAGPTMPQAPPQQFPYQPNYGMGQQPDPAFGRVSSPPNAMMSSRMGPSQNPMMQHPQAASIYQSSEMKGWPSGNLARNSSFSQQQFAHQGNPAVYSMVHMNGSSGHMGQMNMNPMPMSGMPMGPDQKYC

O=C(CSc1c2c(nc3cc(Cl)ccc13)CCCC2)NCc1ccco1
EC50 (Protein RecA): 7.14 µM (active)
AC50 [1]: 27.9 µM (active)
EC50 [2]: > 79.4 µM (inactive)
EC50 [3]: > 79.4 µM (not active)
EC50 [4]: > 79.4 µM (not active)

COc1cc(-c2nn3c(-c4ccccc4)nnc3s2)cc(OC)c1OC
IC50 [5]: > 16 µM (inactive)
IC50 [6]: 3.22 µM (active)

COc1ccc(N(Cc2cc(O)nc3ccccc23)C(=O)CCl)cc1
EC50 (Protein RecA): 1.59 µM (active)
EC50 (BJ [7]): 4.68 µM (active)
EC50 (BJ [8]): 5.45 µM (inconclusive)
AC50 [1]: 10.3 µM (active)
EC50 (BJ [9]): 1.95 µM (active)
AC50 (A-375): 27.1 µM (active)
AC50 [10]: 10.9 µM (active)
EC50 [11]: 4.96 µM (inconclusive)

Cc1ccc(-c2noc(CCC(=O)NCCCN3CCN(c4ccc(F)cc4)CC3)n2)cc1
IC50 [5]: 3.21 µM (active)
IC50 [6]: 3.28 µM (active)

CC1(C)CC2CC(C)(CN2c2ncnc3ccccc23)C1 (stereo not drawn)
IC50 [12]: 6.74 µM (active)
IC50 [5]: 1.16 µM (active)
IC50 [6]: 1.7 µM (active)

CC(=O)C1=C(O)C(=O)N(c2nccs2)C1c1ccccc1 (stereo not drawn)
EC50 [2]: 86.4 µM (inactive)
EC50 [13]: > 53 µM (inactive)
EC50 [3]: 35.4 µM (not active)
EC50 [14]: > 260 µM (inactive)
EC50 [4]: > 79.4 µM (not active)
IC50 [15]: > 47.1 µM (inactive)

N=c1ccn(Cc2cccc(Cl)c2)cc1
IC50 [5]: 3.41 µM (active)
IC50 [6]: 3.15 µM (active)

O=C(NCc1cn(-c2ccccc2)nc1-c1ccc(F)cc1)c1cccc([N+](=O)[O-])c1
IC50 [5]: 4.31 µM (active)
EC50 [16]: 0.805 µM (active)
CC50 [17]: 28.1 µM (active)
EC50 [18]: > 60 µM (not active)
IC50 [6]: 2.91 µM (active)
